{
  "source": "patent US8883698B2",
  "about": "“Compositions comprising a near terminal-branched compound and methods of making the same” (The Procter & Gamble Co, priority 2010, dated 2014)",
  "experiment": "Dynamic Interfacial Tension analysis (Kruss DVT30 Drop Volume Tensiometer), ascending canola oil drop in aqueous surfactant phase",
  "type": "physicochemical",
  "conditions": "6 gpg water hardness; 15° C.",
  "protocol": "The Dynamic Interfacial Tension analysis was performed on a Kruss® DVT30 Drop Volume Tensiometer. The instrument is configured to measure the interfacial tension of an ascending oil drop in aqueous detergent (surfactant) phase. The oil was canola oil. The aqueous detergent and oil phases are temperature controlled via a Polyscience® circulating water temperature controller attached to tensiometer. A dynamic interfacial tension curve is generated by dispensing the oil drops into the aqueous detergent phase from an ascending capillary with diameter of 0.2540 mm over a range of flow rates and measuring the interfacial tension at each flow rate. Data is generated at oil dispensing flow rates of 500 uL/min-1 uL/min with 2 flow rates per decade on a logarithmic scale (7 flow rates measured). Interfacial tension is measured on three oil drops per flow rate, then averaged. Interfacial tension is reported in units of mN/m. Surface age of the oil drops at each flow rate is also recorded and plots can be generated either of interfacial tension (y-axis) versus oil flow rate (x-axis) or interfacial tension (y-axis) versus oil drop surface age (x-axis).",
  "data": [
    {"substance": "13-Methyltetradecylsulfate", "values": [
      {"measurement": "precipitation observed during interfacial tension measurement", "value": "NM (precipitated)"}
    ]}
  ]
}
